Measured values from patent publication US4642341A, “Carbapenem antibiotics” (priority 1985, dated 1987).
≈ marks a conversion by molar mass, not a printed value. Where two headings read alike, the source gives them in different places.

Tests used:
P. vulgaris A21559 = experiment: Minimum Inhibitory Concentration, tube dilution; type: cell-based; conditions: Proteus vulgaris, A21559, overnight 37° C.; table 6
B. fragilis A22696 = experiment: Minimum Inhibitory Concentration, tube dilution; type: cell-based; conditions: Bacteroides fragilis, overnight 37° C., table 6, read-out: MIC
P. aeruginosa A21213 = experiment: Minimum Inhibitory Concentration, tube dilution; type: cell-based; conditions: Pseudomonas aeruginosa, A21213, overnight 37° C.; table 6; read-out: MIC
P. aeruginosa A9843A [1] = experiment: animal or person; type: in vivo, mice; conditions: Pseudomonas aeruginosa, in Mus musculus, im, read-out: PD50 /treatment
Excerpt: The PD50 (dose in mg/kg required to give protection to 50% of the infected mice) is indicated.

S. marcescens A20019 = experiment: Minimum Inhibitory Concentration, tube dilution; type: cell-based; conditions: Serratia marcescens, A20019, overnight 37° C.; table 6
B. fragilis A22862 = experiment: Minimum Inhibitory Concentration, tube dilution; type: cell-based; conditions: Bacteroides fragilis, overnight 37° C., table 6
E. coli A20341-1 = experiment: Minimum Inhibitory Concentration, tube dilution; type: cell-based; conditions: Escherichia coli, A203411, overnight 37° C.; table 6
K. pneumoniae A-9664 = experiment: Minimum Inhibitory Concentration, tube dilution; type: cell-based; conditions: Klebsiella pneumoniae, A9664, overnight 37° C.; table 6
E. cloacae A-9656 = experiment: Minimum Inhibitory Concentration, tube dilution; type: cell-based; conditions: Enterobacter cloacae, A9656; overnight 37° C.; table 6
E. coli A15119 = experiment: Minimum Inhibitory Concentration, tube dilution; type: cell-based; conditions: Escherichia coli, A15119, overnight 37° C.; table 6
[2] = tested on: S. aureus A15097 (Meth-res.); experiment: Minimum Inhibitory Concentration, tube dilution; type: cell-based; conditions: Staphylococcus aureus, table 6
S. pneumoniae A-9585 = experiment: Minimum Inhibitory Concentration, tube dilution; type: cell-based; conditions: Streptococcus pneumoniae, A9585, overnight 37° C.; table 6
E. cloacae A9659 = experiment: Minimum Inhibitory Concentration, tube dilution; type: cell-based; conditions: Enterobacter cloacae, A9659, overnight 37° C.; table 6; read-out: MIC
P. aeruginosa A-9843A = experiment: Minimum Inhibitory Concentration, tube dilution; type: cell-based; conditions: Pseudomonas aeruginosa, A9843A, overnight 37° C.; table 6; read-out: MIC
S. faecalis A20688 = experiment: Minimum Inhibitory Concentration, tube dilution; type: cell-based; conditions: Enterococcus faecalis, A20688, overnight 37° C.; table 6; read-out: MIC
S. aureus A-9537 = experiment: Minimum Inhibitory Concentration, tube dilution; type: cell-based; conditions: table 6
P. rettgeri A22424 = experiment: Minimum Inhibitory Concentration, tube dilution; type: cell-based; conditions: Providencia rettgeri, overnight 37° C., table 6, read-out: MIC
P. mirabilis A-9900 = experiment: Minimum Inhibitory Concentration, tube dilution; type: cell-based; conditions: Proteus mirabilis, A9900, overnight 37° C.; table 6
S. pyogenes A-9604 = experiment: Minimum Inhibitory Concentration, tube dilution; type: cell-based; conditions: Streptococcus pyogenes, A9604, overnight 37° C.; table 6
K. pneumoniae A20468 = experiment: Minimum Inhibitory Concentration, tube dilution; type: cell-based; conditions: Klebsiella pneumoniae, A20468, overnight 37° C.; table 6; read-out: MIC
[3] = Half-life in phosphate buffer pH 7.4; type: physicochemical; conditions: phosphate buffer, pH 7.4, τ1/2 (half-life)
Experimental: To a solution of p-nitrobenzyl 3-[2-(1-pyridinium)ethylthio)]-6α[1-(R)-hydroxyethyl]-7-oxo-1-azabicyclo(3.2.0)hept-2-ene-carboxylate diphenylphosphate (0.16 g, 0.22 mmol) in wet tetrahydrofuran (10mL) was added ether (10mL), potassium phosphate monobasic-sodium hydroxide buffer pH 7.4 (16 mL, 0.05 M) and 10% palladium on charcoal (0.16 g). The resulting mixture was hydrogenated under 40 psi for 1 h at 25° C. The two phases were separated and the organic phase was extracted with water (2×3 mL). The aqeuous solutions were combined, washed with ether (2×10 ml) and poured on top of a column (1.5×6.2 cm) pf μ-bondapak C-18 after the traces of organic solvents have been removed under vacuum. Elution of the column with water gave after lyophylization of the appropriate fractions a yellowish powder 0.062 g (84%), ir (KBr) .nu.max : 3700-3000 (OH), 1755 (C--O of β-lactam), 1630 (pyridinium), 1590 cm^-1 (carboxylate), ^1 Hmr (D2 O): 1.22 (3H, d, J=6.4 Hz, CH3 CHOH), 2.92 (d, J=9.1 Hz, H-4), 2.97 (d, J=9.1 Hz, H-4), 3.20 (dd, J=2.5 Hz, J=6.1 Hz, H-6), 3.44 (t, J=6.0 Hz, CH2 S), 3.93 (dd, J=9.1 Hz, J=2.5 Hz, H-5), 4.82 (t, J=6.0 Hz, CH2 N^+), 8.04 (m, Hm of pyridinium), 8.5 (m, Hp of pyridinium), 8.82 (dd, J=3.2. Hz, J=1.1 Hz, Ho of pyridinium), uv (H2 O) λ max : 259 (ε5800), 296 (ε7030) mμ, .tau.1/2 =13.5 h (measured at a concentration of 10^-4 M in phosphate buffer pH 7.4 at 36.8° C.).

M. morganii A15153 = experiment: Minimum Inhibitory Concentration, tube dilution; type: cell-based; conditions: Morganella morganii, A15153, overnight 37° C.; table 6
P. mirabilis A9900 = experiment: Protective effect, intramuscular treatment of infected mice (table 7); type: in vivo; conditions: Proteus mirabilis, A9900, im; i.m. 1 and 3.5 hours post-infection; ~1×10^7 organisms i.p.; read-out: PD50 /treatment
Experimental: (§1) Drugs were administered i.m. 0 to 2 hours post-infection (A9606) or 1 and 3.5 hours post-infection for the others.

S. aureus A9606 = experiment: as above; type: in vivo; conditions: Staphylococcus aureus, A9606, im; i.m. 0 to 2 hours post-infection; ~1×10^9 organisms i.p.; read-out: PD50 /treatment
Experimental: as §1

[4] = tested on: S. aureus A-9606 (Pen-res.); experiment: Minimum Inhibitory Concentration, tube dilution; type: cell-based; conditions: Staphylococcus aureus, Pen-res; table 6
H. influenzae A21518 = experiment: Minimum Inhibitory Concentration, tube dilution; type: cell-based; conditions: Haemophilus influenzae, overnight 37° C., table 6
H. influenzae A-9833 = experiment: Minimum Inhibitory Concentration, tube dilution; type: cell-based; conditions: Haemophilus influenzae, A9833; overnight 37° C.; table 6; read-out: MIC
P. aeruginosa A9843A [5] = experiment: animal or person; type: in vivo, mice; conditions: Pseudomonas aeruginosa, in Mus musculus, im, 3.5 h, read-out: PD50 /treatment
Experimental: as §1

[6] = Pharmacokinetic parameters in the mouse after intramuscular dose; type: in vivo, mice; conditions: im, 20 mg/kg
Excerpt: Also shown is the urinary recovery in the mice.
Compounds were solubilized in 0.1 M phosphate buffer pH 7.

## CC(C[n+]1ccccc1)SC1=C(C(=O)[O-])N2C(=O)[C@H]([C@@H](C)O)[C@H]2C1 (single isomer, unassigned) [Ex. 15 (cmp. "A")]
P. vulgaris A21559
  MIC: 0.03 mg/L (≈ 0.0861 µM)
B. fragilis A22696
  MIC: 0.25 mg/L (≈ 0.718 µM)
P. aeruginosa A21213
  MIC: 1 mg/L (≈ 2.87 µM)
P. aeruginosa A9843A [1]
  ED50: 3.1 mg/kg
S. marcescens A20019
  MIC: 0.06 mg/L (≈ 0.172 µM)
B. fragilis A22862
  MIC: 0.13 mg/L (≈ 0.373 µM)
E. coli A20341-1
  MIC: 0.03 mg/L (≈ 0.0861 µM)
K. pneumoniae A-9664
  MIC: 0.06 mg/L (≈ 0.172 µM)

## C[C@@H](O)[C@H]1C(=O)N2C(C(=O)[O-])=C(SC3CCCCC3[n+]3ccccc3)C[C@H]12 (single isomer, unassigned) [Ex. 16 (cmp. "A"), (5R,6S) 3-[2-[(R or S)-(1-pyridinium)]-1-(R or S)-cyclohexylthio]-6-[1-(R)-hydroxyethyl]-7-oxo-1-azabicyclo(3.2.0)hept-2-ene-2-carboxylate]
E. cloacae A-9656
  MIC: 0.5 mg/L (≈ 1.29 µM)
E. coli A15119
  MIC: 0.06 mg/L (≈ 0.154 µM)
S. marcescens A20019
  MIC: 0.13 mg/L (≈ 0.335 µM)

## C[C@@H](O)[C@H]1C(=O)N2C(C(=O)[O-])=C(SC3CCCCC3[n+]3ccccc3)C[C@H]12 (single isomer, unassigned) [Ex. 16 (cmp. "B"), (5R,6S) 3-[2-[(R or S)-(1-pyridinium)]-1-(R or S)-cyclohexylthio]-6-[1-(R)-hydroxyethyl]-7-oxo-1-azabicyclo(3.2.0)hept-2-ene-2-carboxylate]
[2]
  MIC: 0.5 mg/L (≈ 1.29 µM)
S. pneumoniae A-9585
  MIC: 0.002 mg/L (≈ 0.00515 µM)
E. cloacae A9659
  MIC: 0.5 mg/L (≈ 1.29 µM)
P. aeruginosa A-9843A
  MIC: 32 mg/L (≈ 82.4 µM)
S. faecalis A20688
  MIC: 8 mg/L (≈ 20.6 µM)
S. aureus A-9537; overnight 37° C.
  MIC: 0.013 mg/L (≈ 0.0335 µM)
P. rettgeri A22424
  MIC: 4 mg/L (≈ 10.3 µM)
P. mirabilis A-9900
  MIC: 0.13 mg/L (≈ 0.335 µM)
E. coli A20341-1
  MIC: 0.06 mg/L (≈ 0.154 µM)
S. pyogenes A-9604
  MIC: 0.004 mg/L (≈ 0.0103 µM)
K. pneumoniae A-9664
  MIC: 0.13 mg/L (≈ 0.335 µM)
K. pneumoniae A20468
  MIC: 0.5 mg/L (≈ 1.29 µM)

## Cc1cc[n+](CCSC2=C(C(=O)[O-])N3C(=O)[C@H]([C@@H](C)O)[C@H]3C2)cc1 [Example 8, 3-[2-(1-(4-methylpyridinium))ethylthio]-6α-[1(R)-hydroxyethyl]-7-oxo-1-azabicyclo(3.2.0)hept-2-ene-2-carboxylate]
[2]
  MIC: > 63 mg/L
[3]
  half-life at 100 µM: 12.8 h
S. pneumoniae A-9585
  MIC: 0.03 mg/L (≈ 0.0861 µM)
P. vulgaris A21559
  MIC: 0.06 mg/L (≈ 0.172 µM)
M. morganii A15153
  MIC: 0.03 mg/L (≈ 0.0861 µM)
P. mirabilis A9900
  ED50: ~38 mg/kg
S. aureus A9606
  ED50: 0.8 mg/kg
[4]
  MIC: 0.06 mg/L (≈ 0.172 µM)
P. aeruginosa A-9843A
  MIC: 8 mg/L (≈ 23 µM)
S. aureus A-9537; Staphylococcus aureus, A9537, 50% serum, read-out: MIC
  MIC: 0.06 mg/L (≈ 0.172 µM)
S. aureus A-9537; Staphylococcus aureus, A9537, overnight 37° C., read-out: MIC
  MIC: 0.03 mg/L (≈ 0.0861 µM)
H. influenzae A21518
  MIC: > 32 mg/L
H. influenzae A-9833
  MIC: > 32 mg/L
B. fragilis A22862
  MIC: 0.06 mg/L (≈ 0.172 µM)
S. pyogenes A-9604
  MIC: 0.03 mg/L (≈ 0.0861 µM)
P. aeruginosa A9843A [5]
  ED50: 0.9 mg/kg
[6]; blood
  AUC: 4.6 µg·h/mL
  Cmax: 10.6 µg/mL
[6]; blood, read-out: T1/2 (blood)
  half-life: 8.2 min
[6]; urine, read-out: Urine Recovery
  dose excreted: 47 ± 7%
